Laboratory results published in publication PMC4754331, “Programming of metabolic effects in C57BL/6JxFVB mice by in utero and lactational exposure to perfluorooctanoic acid” (Archives of Toxicology, 2015).
Values joined by “and” are separate entries in the source; they are usually repeats but may differ in a detail not shown here. Equal values may be shown once.

Legend:
[1] = cited from earlier work
[2] = tested on: F0 C57BL/6J mice; experiment: Perinatal dietary exposure: general toxicity and reproduction parameters (litter size, sex ratio, survival); assay type: in vivo
Procedure: PFOA was obtained as sodium perfluoro-n-octanoate (PFOA-Na; CAS No. 335-95-5, purity >99 %) and kindly provided by Wellington Laboratories Inc., Ontario, Canada. PFOA-Na was dissolved in acetone and mixed with the diet (NIH-07, Research Diet Services, Wijk bij Duurstede, The Netherlands). Thereafter, acetone was allowed to evaporate, and this master mixture was serially diluted with a factor 3–3.3 by adding NIH-07, and afterward, the diet was pelleted. In this way, seven diet groups and a control NIH-07 (blank acetone was added) were obtained, aiming at concentrations of 0, 0.017, 0.056, 0.17, 0.56, 1.7, 5.6 and 17 mg/kg PFOA in feed, which corresponded to 0, 3, 10, 30, 100, 300, 1000 and 3000 µg/kg bw based on an average food consumption of 4.5 g per mouse (average body weight of 25 g) per day. PFOA concentrations in test diets were confirmed by isotope dilution liquid chromatography mass spectrometry after extraction with methanol (8402, JT Baker, Deventer the Netherlands) and a cleanup with carbon solid phase extraction (ENVI Carb, 57210-U, Supelco, Zwijndrecht, the Netherlands). Actual PFOA concentrations in the food were 15–30 % lower than the nominal values. The non-purified soy-based NIH-07 was chosen because it was originally designed to optimize gestation, lactation and growth of rodents, and avoiding natural phytoestrogens in the diet may have confounding effects (Ruhlen et al. [2008]). Estrogenic and anti-estrogenic activity for this diet was previously analyzed to be low and absent, respectively (van Esterik et al. [2014]).
Nulliparous female C57BL/6J mice (Charles River, Sulzfeld, Germany) were mated with male FVB mice (GPL, Bilthoven, The Netherlands) to produce hybrid offspring, for which comprehensive background information of phenotype and development is available (Dollé et al. [2011]). Mice were maintained under specific pathogen-free conditions with a target ambient temperature of 21 °C, humidity of 60 % and with a 12/12 h light/dark cycle. F0 males were single-housed in standard Macrolon type II cages and were fed standard laboratory chow (CRM, Tecnilab-BMI, Someren, The Netherlands). To avoid interference from environmental bisphenol A (van Esterik et al. [2014]), F0 females and their pups during lactation were housed in polysulfone cages (Tecnilab-BMI, Someren, The Netherlands), and drinking water was supplied in glass bottles with rubber stoppers. Cages had spruce/fir wood bedding (Lignocel S 8-15; Tecnilab-BMI, Someren, The Netherlands) and aspen wood shavings (Lignocel 9 S) for cage enrichment. Both feed and water were supplied ad libitum.
After an acclimatization period of 1 week, female F0 mice were fed experimental diets explained above starting 2 weeks before mating and continued during mating (1 week), gestation (3 weeks) and lactation (3 weeks). Each dose group had six F0 females, which were mated three by three with two F0 males for each dose group. […] For every dose group, on average 9 mice per sex (range 6–10) were included for follow-up through juvenile and adult stages, selecting pups proportionally from available litters. F1 males were single-housed, and F1 females were housed in pairs from the same litter in standard Macrolon type I cages. Body weight was measured at postnatal day (PND) 4, 7, 14 and 21 and weekly from 5 weeks of age continuing until the end of the study. Food consumption could not be recorded reliably due to high spillage.

[3] = ref EFSA [2012]; EFSA [2008]; cited from earlier work
[4] = tested on: C57BL/6JxFVB hybrid mice; experiment: Serum lipids and glucose; conditions: for Emax: Mus musculus
[5] = tested on: rodents; parameters: method as in EFSA [2008]; conditions: basis of the TDI; ref EFSA [2008]; cited from earlier work
[6] = tested on: C57BL/6JxFVB hybrid mice; experiment: White adipose tissue adipocyte size and number (perirenal fat pad); assay type: in vivo; conditions: for White adipose tissue cell number: data not shown; for White adipose tissue adipocyte cell size: perirenal fat pad, 300 and 3000 combined
Procedure: Some measurements included only control and one or two dose groups and could therefore not be analyzed as dose–responses. GTT was therefore evaluated by repeated-measures or nested (to account for litter covariance) two-way ANOVAs (Graphpad Prism 5.0, R) to detect differences at the different time points and between the areas under the curve (AUC). Activity measurement, ucp1 expression, WAT adipocyte size and the proxy for cell number were also tested with a nested ANOVA (R). Differences in distribution of BAT histopathology scores between experimental groups were tested for statistical significance in a two-tailed Fisher’s exact test.

[7] = tested on: C57BL/6JxFVB hybrid mice; experiment: Body size, organ and fat pad weights at necropsy; conditions: for Emax: Mus musculus
[8] = cited from earlier work; remark: listed apart in the source

For `O=C(O)C(F)(F)C(F)(F)C(F)(F)C(F)(F)C(F)(F)C(F)(F)C(F)(F)F` [PFOA, Perfluorooctanoic acid], the “Elimination half-life in adult mice” value ([1]; adult mice, ref Lau et al. [2006]) is given as 17 days, the “Time to steady-state level in serum of mice” value ([1]; ref Lau et al. [2006]) is given as at most 1 week and the “Lowering of levels in offspring after maternal exposure was stopped” value ([1]; within 6 weeks, ref Wolf et al. ([2007])) is given as 40 times. For the same compound, the “Sex ratio or survival of the F1 generation” value ([2]; 3–3000 µg/kg bw/day) was “No effects”, the “Litter size: BMD (CED)” value ([2]; F0 dams exposed via diet 2 weeks before mating until PND21) was 445 µg/kg bw/d and the “Litter size: CEDL” value ([2]; Fig. 1, unit from legend) was 299.1 µg/kg body weight/day. The “Litter size: CEDU” value ([2]; Fig. 1, unit from legend) was 873 µg/kg body weight/day, the “General toxicity in dams (survival, body weight, weight gain during gestation)” value ([2]; dietary exposure 3–3000 µg/kg bw/day) was “no effect” and the “Tolerable daily intake (TDI)” value [3] was 1.5 µg/kg bw/d. The “Serum triglycerides: BMDU/BMDL” value ([4]; F1 females) was 100, the “Serum cholesterol: BMDL” value ([4]; F1 females, CES 5 %) was 402 µg/kg bw/d and the “Serum cholesterol: BMDU” value ([4]; F1 females, CES 5 %) was 1284 µg/kg bw/d. For the same compound, the “Serum triglycerides: BMDL” value ([4]; F1 females, CES 5 %) was 6.2 µg/kg bw/d, the “Serum triglycerides: BMDU” value ([4]; F1 females, CES 5 %) was 623 µg/kg bw/d and the Emax ([4]; read-out: Serum cholesterol: max effect size) was -20%. For the same compound, the Emax ([4]; read-out: Serum triglycerides: max effect size) was -27%, the “BMDL10 for liver effects in rodents” value [5] was 300 µg/kg bw/d and the “White adipose tissue cell number” value ([6]; females) was “did not differ”. For the same compound, the “White adipose tissue adipocyte cell size” value ([6]; females, p < 0.05) was “significantly decreased”, the “White adipose tissue cell number” value ([6]; males) was “no differences” and the “White adipose tissue adipocyte cell size” value ([6]; males) was “no differences”. The “Other relevant effects of PFOA” value ([7]; C57BL/6JxFVB, 3-10-30-100-300-1000-3000 µg/kg bw/d, diet, 2w pre-mating-PND21, this study) was “F: ↓ fat pad weights; ↓ serum cholesterol; ↓ serum triglycerides”, the “Perirenal fat pad weight: BMDL corrected for measured levels of PFOA in the feed (15–30 % lower than nominal)” value ([7]; F1 females) was 46–55 µg/kg bw/d and 46 µg/kg bw/d and the “Femur length: BMDL” value ([7]; F1 females, CES 5 %) was 2423 µg/kg bw/d. For the same compound, the “Femur length: BMDU” value ([7]; F1 females, CES 5 %) was 6999 µg/kg bw/d, the “Femur weight: BMDL” value ([7]; F1 females, CES 5 %) was 989 µg/kg bw/d and the “Femur weight: BMDU” value ([7]; F1 females, CES 5 %) was 5060 µg/kg bw/d. For the same compound, the “Perirenal fat pad weight: BMDL” value ([7]; F1 females, CES 5 %) was 65 µg/kg bw/d, the “Perirenal fat pad weight: BMDU” value ([7]; F1 females, CES 5 %) was 362 µg/kg bw/d and the “Quadriceps femoris muscle weight: BMDL” value ([7]; F1 females, CES 5 %) was 432 µg/kg bw/d. The “Quadriceps femoris muscle weight: BMDU” value ([7]; F1 females, CES 5 %) was 1356 µg/kg bw/d, the Emax ([7]; read-out: Femur length: max effect size, F1 females) was -4.2% and the Emax ([7]; read-out: Femur weight: max effect size, F1 females) was -8.6%. For the same compound, the Emax ([7]; read-out: Liver weight: max effect size, F1 males) was 16%, the Emax ([7]; read-out: Perigonadal fat pad weight: max effect size, F1 females) was -56% and the Emax ([7]; read-out: Perirenal fat pad weight: max effect size, F1 females) was -57%. For the same compound, the Emax ([7]; read-out: Quadriceps femoris muscle weight: max effect size, F1 females) was -19%, the Emax ([7]; read-out: Tibia length: max effect size, F1 females, exponential modeling only) was -5% and the Emax ([7]; read-out: Tibia length: max effect size, F1 males) was -1.6%. The “Developmental BMDL of 46 µg/kg bw/d: times lower than the BMDL10 of 300 µg/kg bw/d used for the TDI” value ([7]; mouse, in vivo) was 6.5 times, the “Level in adult human serum samples” value ([8]; detected globally, ref Calafat et al. [2007]) was 3.6 to 4.3 ng/mL and the “Level in serum of pregnant mothers” value ([8]; ref Grandjean et al. [2012]) was 2.6 to 4.0 ng/mL. The “Level in cord plasma” value ([8]; ref de Cock et al. [2014]) was 0.3 to 2.7 ng/mL.
